In patent publication US20070036809A1, “Tolerance-induced targeted antibody production” (priority 2003, published 2007):

What was measured:
[1] = tested on: BMRPA1 cells; assay: NNK exposure of BMRPA1 cells, morphology; assay type: cell-based, rat; settings: one 16 hour exposure
Protocol: NNK Exposures: All preparations of the carcinogen-containing media were made in a separate laboratory within a NCI-designed and certified chemical hood using prescribed protective measures. NNK (American Health Foundation, N.Y.) was prepared as a stock solution of 10 mg NNK in PBS and added to FBS-free cRPMI to make final concentrations of 100, 50, 10, 5, and 1 μg/ml. BMRPA1 cells at passage 36 (p36) were seeded at 10^5/60 mm TCDs and allowed to grow for 6 d. At this time the medium was removed, and the cells were washed 2× with prewarmed (37° C.), FBS-free cRPMI before they were treated with FBS-free cRPMI (4 ml/TCD) containing the different concentrations of NNK. A 6th set of TCDs containing BMRPA1 cells was incubated in FBS-free cRPMI without NNK and was used as controls. The eight TCDs used for each of the six sets of different culture conditions were returned to the 37° C. and 95% air-5% CO2 incubator. After 16 h, the NNK-containing medium was removed from all TCDs and the cells were washed 3× with PBS followed by addition of fresh cRPMI-10% FBS (4 ml/TCD), and the incubation continued. Control cultures without NNK were processed in parallel. The cells were fed every 2 d by replacing ½ of the spent medium with fresh cRPMI-10% FBS. At full confluency the cells were collected from all TCDs, the cells in each group were pooled, and passaged at 2×10^4 into fresh TCDs.

[2] = tested on: BMRPA1 antigens
Protocol: Immunosubtractive Hyperimmunization Protocol (ISHIP): A mixture of live (10^6) and paraformaldehyde fixed and washed (10^6) cells was used for each immunization intraperitoneally (ip). Six female Balb/c mice (age˜12 wks) (Harlan-Sprague Dawley Labs, St. Louis) were used: two mice were injected 4× during standard immunizations with BMRPA1 cells. […] The other two immunosuppressed mice were injected weekly three more times with transformed BMRPA1.NNK cells, and a week later the mice were hyperimmunized with 5 additional injections of transformed BMRPA1.NNK cells in the 10 days preceding fusion (ISHIP mice). Sera were obtained from all mice within a week after the indicated number of immunizations.
Cell-Enzyme ImmunoAssay (Cell-EIA): BMRPA1 and BMRPA1.NNK cells were seeded in TCPs (96-wells) at 3×10^4/well with 0.1 mL cRPMI-10% FBS. The cells were allowed to adhere for 24 h, air dried, and stored under vacuum at RT. The cells were then rehydrated with PBS-1% BSA, followed by addition of either hybridoma supernatants or two fold serial dilutions of mouse sera to each well for 45 min at room temperature (RT). After washing with PBS-BSA, HRP-GαMIgG (1:100 in PBS-1% BSA) was added to each well for 45 min at RT. […] The substrate color development was assessed at OD490nm with a microplate reader (Bio-Rad 3550). […]

| Compound | Phenotypical changes of neoplastic transformation ([1]; 1 μg/ml NNK) | Cytotoxic changes ([1]; 5 and 1 μg NNK/mL) | Appearance of phenotypical changes indicative of neoplastic transformation ([1]; 100, 50, 10 μg NNK/ml) | Cytotoxic changes ([1]; larger concentrations of NNK (100, 50, 10 μg NNK/mL), serum free medium) | Immunosuppression of antibody titer to BMRPA1 cells (Cell-EIA with sera) ([2]; 3 injections of BMRPA1 cells, then cyclophosphamide i.p. for 5 days, 60 μg/day/g body weight) | Staining of rat pancreatic tissue by sera of BMRPA1 immunized, cyclophosphamide-treated mice ([2]; immunohistochemistry on rat pancreas) |
| --- | --- | --- | --- | --- | --- | --- |
| CN(CCCC(=O)c1cccnc1)N=O [NNK, 4-(methyl-nitrosamino)-1-(3-pyridyl)-1 butanone] | phenotypical changes characteristic of neoplastic transformation but at a slower rate, over several weeks | observed considerably less | within a week | cytotoxic changes consisting of poorly attached, degenerating, dying cells, and slowed cell growth |  |  |
| O=P1(N(CCCl)CCCl)NCCCO1 (stereo not drawn) [cyclophosphamide] |  |  |  |  | strong immunosuppression | virtually no staining |
